Test results as given in publication PMC11809180, “RA-PR058, a novel ramalin derivative, reduces BACE1 expression and phosphorylation of tau in Alzheimer’s disease mouse models” (Animal Cells and Systems, 2025).

Tests used:
BACE1 = BACE1 expression in brain of 3xTg-AD mice (western blot); format: in vivo, mouse; settings: 20 mg/kg oral daily 4 weeks
Method: (§1) 3xTg-AD (B6;129-Tg(APPSwe,tauP301L)1Lfa Psen1^tm1Mpm/Mmjax) mice and their littermate wild-type (WT) mice were used in this study. Each experimental group consisted of 4–8 mice, with groups designated as WT, 3xTg-AD Vehicle, and 3xTg-AD RA-PR058. All mice were maintained in a 12-hour light/dark cycle with free access to food and water. 7-month-old age of mice were administered with 20 mg/kg of RA-PR058 orally once a day for 1 month followed by the elevated plus maze test. All animal experimental procedures were approved by the Institutional Animal Care and Use Committee of Sungkyunkwan University (SKKUIACUC2022-10-41-1).
(§2) After EPM was conducted, mice were sacrificed, and brain tissues were collected as previously described (Park et al. [2021]). Mice were anesthetized by injecting Zoletil (Virbac) and Rompun (Bayer) intraperitoneally. After mice were anesthetized, they were perfused with phosphate-buffered saline (PBS). Then, brains were extracted and cut into two hemispheres; one hemisphere was preserved in 4% paraformaldehyde and the other was dissected into the cortex and hippocampus. […]
(§3) Samples for western blot analysis were prepared as previously described (Gwon et al. [2012]). […] Protein concentrations were measured using Pierce™ BCA Protein Assay Kits (Thermo Fisher Scientific). […] Protein bands were quantified using ImageJ (NIH).

tau = assay: Tau phosphorylation in brain of 3xTg-AD mice (western blot, DAB staining); format: in vivo, mouse; settings: 20 mg/kg oral daily 4 weeks
Method: as §1
After EPM was conducted, mice were sacrificed, and brain tissues were collected as previously described (Park et al. [2021]). Mice were anesthetized by injecting Zoletil (Virbac) and Rompun (Bayer) intraperitoneally. After mice were anesthetized, they were perfused with phosphate-buffered saline (PBS). Then, brains were extracted and cut into two hemispheres; one hemisphere was preserved in 4% paraformaldehyde and the other was dissected into the cortex and hippocampus. Dissected tissues were then snap-frozen in liquid nitrogen and stored at −80 ℃ until further biochemical analysis.
Samples for western blot analysis were prepared as previously described (Gwon et al. [2012]). Cells were lysed with T-PER™ Tissue Protein Extraction Reagent (Thermo Fisher Scientific) supplemented with protease/phosphatase inhibitor cocktail (Thermo Fisher Scientific) and incubated at 4 ℃ for 10 minutes. After incubation, lysed samples were centrifuged at 13,000 x rpm for 10 minutes at 4 ℃ and the supernatant were used for western blot analysis. The cortices and hippocampi tissues were homogenized using RIPA lysis buffer (Millipore) supplemented with protease/phosphatase inhibitor cocktail and incubated at 4 ℃ for 30 minutes. Following incubation, lysed tissues were centrifuged at 13,000 x rpm for 30 minutes at 4 ℃ and the supernatant were used for western blot analysis. Protein concentrations were measured using Pierce™ BCA Protein Assay Kits (Thermo Fisher Scientific). Equal amounts of proteins were mixed with NuPAGE™ LDS Sample Buffer (Invitrogen) and 5% 2-mercaptoethanol (Sigma) and then boiled at 95 ℃ for 5 minutes. 4–12 μg of proteins were loaded onto SDS-polyacrylamide gels and electrophoresed (SDS-PAGE) until the protein bands were fully separated. After SDS-PAGE, the protein bands were transferred onto polyvinylidene fluoride (PVDF) membranes (Millipore). Following transfer, PVDF membranes were blocked with 5% non-fat skim milk in tris-buffered saline with Tween20 (Junsei) (TBS-T) for 1 hour at room temperature. Then, PVDF membranes were incubated overnight at 4 ℃ with primary antibodies against APP (6E10, BioLegend, 803001, 1:1,000), AT8 (Invitrogen, MN1020, 1:1,000), AT180 (Invitrogen, MN1040, 1:1,000), BACE1 (Cell Signaling Technology, 5606, 1:1,000), β-Actin (Sigma, A5441, 1:10,000), p-JNK (Cell Signaling Technology, 4671, 1:1,000), JNK (Cell Signaling Technology, 9252, 1:1,000), p-Tau^S396 (Invitrogen, 44-752G, 1:1,000), Tau13 (BioLegend, 835201, 1:1,000). Following incubation, membranes were washed with TBS-T and incubated with horseradish peroxidase-conjugated anti-mouse secondary antibody (Sigma, AP124P, 1:5,000) or anti-rabbit secondary antibody (Invitrogen, 31460, 1:5,000) for 1 hour at room temperature. […] Protein bands were quantified using ImageJ (NIH). […]

JNK = JNK phosphorylation in cortex of 3xTg-AD mice (western blot); format: in vivo, mouse; settings: 20 mg/kg oral daily 4 weeks, p-JNK normalized with JNK
Method: as §1, §2, §3

[1] = Plasma pharmacokinetics after IV and PO administration; format: in vivo; settings: Sprague-Dawley, rat, 10 mg/kg, S.D. rats; for Cmax / half-life / AUC(0-t): in vivo; for AUC(0-t): read-out: AUC0-7h; for Tmax: plasma
Method: (§4) Pharmacokinetic assays were conducted by NeuroVis (Republic of Korea). 10 mg/kg of RA-PR058 was administered to Sprague–Dawley rats by either oral administration route or intravenous injection route. Blood sampling was conducted using the BASi Culex ABS system. After cannulation, catheters were inserted into the jugular vein and the carotid artery of the rats, with the system programmed to collect 200 μL samples. Collected blood samples were centrifuged at 12,000 x rpm for 10 minutes to separate plasma, which was then immediately stored at −80 ℃. For brain pharmacokinetics, 10 mg/kg of RA-PR058 was administered orally to Sprague–Dawley rats, followed by collection of both blood and brain tissue. After collection, samples were mixed with the internal standard, ofloxacin, and centrifuged at 13,000 x rpm for 5 minutes at 4 ℃. The resulting supernatants were then combined with 50% methanol and analyzed by LC-MS/MS.

[2] = Plasma and brain pharmacokinetics after oral administration; format: in vivo; settings: Sprague-Dawley, rat, 10 mg/kg oral, S.D. rats; for AUC(0-t): read-out: AUC0-7h
Method: as §4

Compound: Cl.N[C@@H](CCC(=O)NNc1ccccc1F)C(F)F [RA-PR058, (S)-4-amino-5,5-difluoro-N'-(2-fluorophenyl)pentanehydrazide hydrochloride]
- Cortical BACE1 expression (BACE1; cortex, normalized with β-Actin): significantly reduced
- BACE1 expression in the hippocampus (BACE1; hippocampus): did not affect
- Tau phosphorylation at Ser202/Thr205 (AT8) (tau; cortex, normalized with Tau13): significantly reduced
- Tau phosphorylation at Ser396 (tau; cortex, normalized with Tau13): significantly reduced
- Tau phosphorylation at Thr231 (AT180) (tau; cortex, normalized with Tau13): significantly reduced
- AT8 expression in the hippocampus (tau; hippocampus): significantly reduced
- Other phosphorylated tau species in the hippocampus (tau; hippocampus, AT180, p-Tau S396): did not affect
- JNK phosphorylation (JNK): significantly downregulated
- Cmax ([1]; IV): 4260 ng/mL
- half-life ([1]; IV): 63.5 min
- AUC(0-t) ([1]; IV): 5700 ng·h/mL
- Cmax ([1]; PO): 3480 ng/mL
- half-life ([1]; PO): 94.5 min
- AUC(0-t) ([1]; PO): 6090 ng·h/mL
- Tmax ([1]; IV): 17.5 min
- Tmax ([1]; PO): 27.5 min
- Kp ([2]; brain and plasma, read-out: Brain-to-plasma AUC ratio (AUC0–7h)): 0.916
- Cmax ([2]; Brain): 3190 ng/mL
- half-life ([2]; Brain): 94.5 min
- AUC(0-t) ([2]; Brain): 6090 ng·h/mL
- Cmax ([2]; Plasma): 3900 ng/mL
- half-life ([2]; Plasma): 63.5 min
- AUC(0-t) ([2]; Plasma): 5700 ng·h/mL
